These results are taken from US20220017863A1, “SIRT2-ABLATED CHIMERIC T CELLS” (H. Lee Moffitt Cancer Center and Research Institute, Inc., priority 2019, published 2022).

The target in data set [1] is T1, SIRT2 (Homo sapiens, UniProt Q8IXJ6).
T1 sequence (Q8IXJ6 1-389): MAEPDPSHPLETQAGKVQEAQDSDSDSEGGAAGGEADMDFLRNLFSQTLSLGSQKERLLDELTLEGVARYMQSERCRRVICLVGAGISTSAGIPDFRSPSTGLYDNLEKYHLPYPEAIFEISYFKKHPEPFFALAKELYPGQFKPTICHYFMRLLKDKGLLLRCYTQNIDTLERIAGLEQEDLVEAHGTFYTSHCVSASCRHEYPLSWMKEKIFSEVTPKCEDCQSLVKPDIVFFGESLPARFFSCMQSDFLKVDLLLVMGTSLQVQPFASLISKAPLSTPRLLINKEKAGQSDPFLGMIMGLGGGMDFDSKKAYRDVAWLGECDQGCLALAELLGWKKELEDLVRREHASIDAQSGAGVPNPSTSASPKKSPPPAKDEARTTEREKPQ
As to conditions: cited from earlier work.

In data set [2] the test system is CD3+ TILs from B16F10 tumor nodules. The data set is described as follows: IFN-γ ELISPOT on mouse CD3+ TILs re-challenged with irradiated B16F10 cells. It is filed as cell-based. As to conditions: CD3+ TILs from subcutaneous B16F10 nodules of Sirt2KO versus WT mice. Here is the method:
Lymphocytes from subcutaneous tumors were isolated by dicing the tissues and enzymatic digestion in PBS containing collagenase type 4 (2 mg/ml, Worthington Biochemical) and DNase I (0.25 mg/ml, Sigma) for 45 min with occasional shaking at 37° C. Cell suspensions were then twice filtered through 100 μm and 40 μm cell strainers (ThermoFisher Scientific) to single-cell suspension followed by PBS wash and red blood cell lysis using RBC Lysis Buffer (Biolegend). TILs were finally isolated by density gradient centrifugation using Percoll (GE Healthcare) and further purified using CD3c MicroBeads Kit™ (Miltenyi Biotec) according to the manufacturer's instructions. […]
(§1) The number of IFN-γ producing cells was evaluated in an ELISPOT assay. […] After washing steps and biotinylated anti-IFN-γ antibody (R4-6A2, ThermoFisher Scientific)+Streptavidin-HRP (BD Bioscience) labeling, spots were detected using AEC Substrate Kit (BD Biosciences) and counted using an AID ELISPOT Reader System (Autoimmun Diagnostika GmbH). […]
(§2) The number of IFN-γ producing cells was evaluated in an ELISPOT assay. […] After washing steps and successive biotinylated anti-IFN-γ antibody (R4-6A2, Mabtech, Inc.) and Streptavidin-HRP (BD Bioscience) labeling, spots were detected using AEC Substrate Kit (BD Biosciences) and counted using an AID ELISPOT Reader System (Autoimmun Diagnostika GmbH).

Data set [3] has as its system Pmel T cells. The data set is described as follows: IFN-γ ELISPOT on gp100-stimulated Pmel T cells. The conditions noted are these: gp100-stimulated Sirt2KO (Sirt2−/−) Pmel T cells. Format: cell-based, mouse. The method, then: Spleens and/or Lymph nodes (LN) were collected from WT, Sirt2KO, Pmel/WT, Pmel/Sirt2KO mice and processed into single-cell suspensions. CD3^+, CD4^+ and CD8^+ T cells were negatively enriched using Mouse Pan T cell, CD4^+ T cell and CD8^+ T cell isolation Kits™ respectively according to the manufacturers' instructions. The purity of the isolated cells was confirmed by flow cytometry (>95%). Purified T cells were cultured in completed RPMI 1640 medium (ThermoFisher Scientific) supplemented with 10% (vol/vol) Fetal bovine serum (FBS, Biowest) and 1% (vol/vol) penicillin/streptomycin (P/S, Thomas Scientific Inc). […]
as §1, §2

The test system of data set [4] is Pmel CD8+ T cells co-cultured with B16F10 target cells. The data set is described as follows: LDH release cytotoxicity assay of Pmel CD8+ T cells on B16F10 targets. Format: cell-based, mouse. The conditions noted are these: gp100-stimulated Sirt2KO (Sirt2−/−) Pmel T cells on B16F10 targets, 10 mM 2-DG. Here is the method: Evaluation of functional cytotoxic activity was performed using Pierce™ LDH Cytotoxicity Assay Kit (ThermoFisher Scientific) according to the manufacturer's protocol. B16F10 cells were used as targets. Mouse CD3^+ TILs isolated from subcutaneous B16F10 tumor nodules and CD8^+ enriched T cells from gp100-stimulated Pmel splenocytes were used as effector cells. Briefly, target B16F10 tumor cells were co-cultured with effector cells in 96-well round-bottom microplates at the indicated effector:target ratios. After 6 hours, the percentage of specific LDH release was calculated according to the following formula: % cell lysis=(experimental value effector cells spontaneous release target cells spontaneous release)×100/(target cells maximum release target cells spontaneous release), where “experimental” corresponds to the experimental signal value, “effector spontaneous” to spontaneous release of LDH from effector cells alone, “target spontaneous” to spontaneous release of LDH from target cells alone and “maximum release” to the maximum release of LDH from target cells in medium containing 1% Triton X-100.
Evaluation of functional cytotoxic activity was performed using Pierce™ LDH Cytotoxicity Assay Kit (Thermo Fisher Scientific) according to the manufacturer's protocol. […]

For data set [5], the target named is T2, SIRT1 (Homo sapiens, UniProt Q96EB6).
T2 sequence (Q96EB6 1-747): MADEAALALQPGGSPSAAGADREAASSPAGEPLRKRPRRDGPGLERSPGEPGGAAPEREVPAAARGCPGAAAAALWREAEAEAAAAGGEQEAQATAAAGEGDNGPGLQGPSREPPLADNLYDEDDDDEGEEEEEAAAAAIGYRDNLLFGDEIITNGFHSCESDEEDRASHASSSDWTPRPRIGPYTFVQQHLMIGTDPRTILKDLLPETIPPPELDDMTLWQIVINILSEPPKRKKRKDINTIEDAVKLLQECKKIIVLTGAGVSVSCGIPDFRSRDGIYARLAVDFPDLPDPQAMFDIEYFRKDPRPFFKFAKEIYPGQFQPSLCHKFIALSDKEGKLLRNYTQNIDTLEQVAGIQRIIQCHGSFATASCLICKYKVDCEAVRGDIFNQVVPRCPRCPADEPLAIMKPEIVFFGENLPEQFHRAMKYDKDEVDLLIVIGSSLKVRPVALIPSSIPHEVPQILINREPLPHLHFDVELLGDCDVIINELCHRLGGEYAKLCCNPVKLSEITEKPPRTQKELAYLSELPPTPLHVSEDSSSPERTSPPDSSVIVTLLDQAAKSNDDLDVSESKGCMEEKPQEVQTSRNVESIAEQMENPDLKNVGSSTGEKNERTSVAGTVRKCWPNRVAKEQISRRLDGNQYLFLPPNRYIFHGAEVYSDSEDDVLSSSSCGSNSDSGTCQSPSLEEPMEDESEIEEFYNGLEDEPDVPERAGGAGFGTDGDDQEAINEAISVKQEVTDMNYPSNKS
As to conditions: cited from earlier work.

Data set [6] addresses T3, SIRT3 (Homo sapiens, UniProt Q9NTG7).
T3 sequence (Q9NTG7 1-399): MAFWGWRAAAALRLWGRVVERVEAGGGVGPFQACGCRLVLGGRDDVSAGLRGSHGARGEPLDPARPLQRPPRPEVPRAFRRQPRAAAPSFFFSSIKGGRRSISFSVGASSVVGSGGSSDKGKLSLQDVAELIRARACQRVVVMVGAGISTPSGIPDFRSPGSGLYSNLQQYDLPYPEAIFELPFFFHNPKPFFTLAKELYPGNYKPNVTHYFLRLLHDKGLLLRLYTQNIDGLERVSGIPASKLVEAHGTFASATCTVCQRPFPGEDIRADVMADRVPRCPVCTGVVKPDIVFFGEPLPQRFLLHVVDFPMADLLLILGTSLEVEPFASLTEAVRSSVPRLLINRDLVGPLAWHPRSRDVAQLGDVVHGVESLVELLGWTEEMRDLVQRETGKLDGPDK
As to conditions: cited from earlier work.

By IC50 is commonly meant the midpoint of a concentration-inhibition curve.

Take `CCOC(=O)c1ccc(NC(=O)c2ccc3c(c2)C2C4CCC(C4)C2C(c2ccccc2)N3)cc1` (stereo not drawn) [AEM2]: in data set [1], the IC50 is 3.8 µM.

For `O=CC[C@@H](O)[C@H](O)[C@H](O)CO` [2-DG, 2-deoxyglucose], the IFN-γ release entry in data set [2] was “suppressed”; in data set [3], “profoundly suppressed”. Moreover, the cytotoxicity entry in data set [4] is given as “profoundly suppressed”.

Consider `O=C(Nc1cccc([N+](=O)[O-])c1)c1cccc(S(=O)(=O)N2CCCCCC2)c1` [AK-1], for which the IC50 in data set [5] and in data set [6] was above 50 µM throughout.
